Like-named read-outs stand apart in the source and are kept apart here.
Key:
[1] = target: T1, neurokinin-1 (NK-1) receptor (Homo sapiens, UniProt P25103); assay: NK-1 Binding assay ([125I] Substance P competition, U373 cell membranes); settings: U373 membranes, [125I] Substance P displacement, read-out: NK-1 IC50
T1 construct: a human glioblastoma-astrocytoma cell line that endogenously expresses the neurokinin-1 (NK-1) receptor; endogenous in cells; host or cells: U373 human glioblastoma-astrocytoma cells (membranes)
Procedure: NK-1 Binding assay. U373 cells, a human glioblastoma-astrocytoma cell line that endogenously expresses the neurokinin-1 (NK-1) receptor, were grown in a monolayer culture at 37° C. in 5% CO2 and fed with Minimum Essential Medium (MEM) supplemented with 10% fetal bovine serum. Membranes were prepared as follows: Cells were washed twice with ice-cold phosphate-buffered saline (pH 7.4) and then incubated for 5-10 minutes with ice-cold 10 mM Tris buffer (pH 7.4) containing 5 mM EDTA. Cells were removed from plates, homogenized, and centrifuged at 32,000×g for 20 minutes. The resulting supernatant was discarded, and the pellet resuspended by homogenization in 50 mM Tris buffer (pH 7.4) containing 1 mM EDTA and centrifuged at 32,000×g for 20 minutes. The resulting supernatant was discarded, and the pellet resuspended by homogenization in NK-1 binding assay buffer (50 mM Tris-HCL (pH 7.4), 3 mM MnCl2, 200 μg/ml BSA, 5 μg/ml chymostatin, 40 μg/ml bacitracin and 4 μg/ml leupeptin).
On the day of an experiment the membrane preparation was thawed, homogenized and diluted with NK-1 binding assay buffer to the appropriate concentration. […] Substance P, at a concentration of […], and concentrations of drugs ranging from 10000 to 0.01 nM. Samples were incubated for 30 min at 20° C. then filtered through GF/B glass fiber filters (pretreated with 1% polyethyleneimine and 0.3% Triton X-100) using a Brandel cell harvester. The filters were then washed with 10 ml ice cold 50 mM Tris-HCL (pH 7.4) containing 3 mM MgCl2. […] The amount of radioligand bound in the presence and absence of competitor was analyzed by plotting (-)log drug concentration versus the amount of radioligand specifically bound. The midpoint of the displacement curve (IC50, nM), signifies the potency.

[2] = target: T2, human serotonin transporters (Homo sapiens, UniProt P31645); assay: Serotonin transporter binding assay ([3H]-citalopram competition, HEK-hSERT cell membranes)
T2 construct: expressed in transfected cells
Procedure: Serotonin transporter binding assay. HEK-293 cells that stably express human serotonin transporters (HEK-hSERT cells) were grown at 37° C. in 5% CO2 as a monolayer in medium consisting of EMEM supplemented with 10% fetal bovine serum and G418 sulfate (500 μg/ml). To prepare membranes for radioligand binding experiments, cells were rinsed twice with phosphate-buffered saline (138 mM NaCl, 4.1 mM KCl, 5.1 mM Na2PO4, 1.5 mM KH2PO4, 11.1 mM glucose, pH 7.4). Cells were transferred from plates to polypropylene tubes (16×100 mm), centrifuged at 1,200×g for 5 min and were frozen at −80° C. until assay. Following centrifugation, pellets were resuspended by homogenization in buffer consisting of 50 mM Tris (pH 7.7 at 25° C.), 120 mM NaCl and 5 mM KCl and then centrifuged at 32,000×g for 10 min. Following centrifugation, supernatants were discarded and pellets were resuspended in buffer consisting of 50 mM Tris (pH 7.4 at 25° C.), 150 mM NaCl and 5 mM KCl. Membrane homogenates (200 μl/plate) were incubated with 1 nM [^3H]-citalopram (specific activity=85 Ci/mmol) and increasing concentrations of test compounds for 1 hr at 25° C. in a total volume of 250 μl. The assay buffer consisted of 50 mM Tris (pH 7.4 at 25° C.), 120 mM NaCl and 5 mM KCl (pH 7.4 with conc. HCl). Plates were incubated for 1 hr at 25° C., then filtered through 0.5% PEI treated Whatman GF/B filters using a Brandel cell harvester. Filters were washed three times with 3 ml of ice-cold tris wash buffer. Non-specific binding was defined with 10 μM fluoxetine. Amount of radioligand bound in the presence and absence of competitor was analyzed by plotting (-)log drug concentration versus the amount of radioligand specifically bound. The midpoint of the displacement curve (IC50, nM), signifies the potency. Ki values can be calculated using the method of Cheng and Prusoff (Cheng and Prusoff, BiochemicalPharmacology, Vol 22, pp. 3099-3108, Pergamon Press (1973)).

[3] = Table 1, HEK-hSERT membranes, [3H]-citalopram displacement, read-out: SERT IC50
[4] = Table 2, HEK-hSERT membranes, [3H]-citalopram displacement, read-out: SERT IC50

T2 sequence (P31645 whole entry): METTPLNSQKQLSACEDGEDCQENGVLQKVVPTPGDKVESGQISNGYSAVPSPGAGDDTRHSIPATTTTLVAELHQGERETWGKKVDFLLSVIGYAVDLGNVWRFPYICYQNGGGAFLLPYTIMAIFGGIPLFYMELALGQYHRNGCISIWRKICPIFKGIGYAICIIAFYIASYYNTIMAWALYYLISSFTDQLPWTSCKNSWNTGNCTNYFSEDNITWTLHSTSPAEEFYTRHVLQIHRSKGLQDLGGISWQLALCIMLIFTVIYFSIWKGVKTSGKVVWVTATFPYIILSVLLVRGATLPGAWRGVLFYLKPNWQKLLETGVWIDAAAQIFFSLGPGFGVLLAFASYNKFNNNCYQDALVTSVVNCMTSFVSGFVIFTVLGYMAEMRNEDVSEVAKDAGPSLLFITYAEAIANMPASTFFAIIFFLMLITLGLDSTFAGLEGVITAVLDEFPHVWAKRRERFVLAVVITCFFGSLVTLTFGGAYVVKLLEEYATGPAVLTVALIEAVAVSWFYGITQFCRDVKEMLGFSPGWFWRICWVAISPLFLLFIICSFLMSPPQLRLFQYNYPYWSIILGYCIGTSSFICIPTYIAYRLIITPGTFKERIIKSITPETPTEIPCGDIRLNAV
T1 sequence (P25103 whole entry): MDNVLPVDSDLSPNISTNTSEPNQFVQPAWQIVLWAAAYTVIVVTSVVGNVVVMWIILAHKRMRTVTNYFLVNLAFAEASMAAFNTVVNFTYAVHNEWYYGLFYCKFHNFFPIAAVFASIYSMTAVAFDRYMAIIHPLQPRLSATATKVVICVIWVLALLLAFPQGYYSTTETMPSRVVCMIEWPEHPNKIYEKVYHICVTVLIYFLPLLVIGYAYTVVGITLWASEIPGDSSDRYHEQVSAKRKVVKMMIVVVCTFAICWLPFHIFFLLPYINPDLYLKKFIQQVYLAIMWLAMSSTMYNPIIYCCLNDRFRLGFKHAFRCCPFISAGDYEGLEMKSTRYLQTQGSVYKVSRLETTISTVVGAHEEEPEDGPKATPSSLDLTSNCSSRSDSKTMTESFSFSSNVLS

| IC50 ([1]; Table 2) [nM] | IC50 ([1]; Table 1) [nM] | IC50 [2, 3] [nM] | IC50 [2, 4] [nM] | SMILES | IC50 [2] [nM] |
| --- | --- | --- | --- | --- | --- |
| – | 0.01 to 100 | 0.01 to 100 | – | FC(F)(F)c1cccc(-c2cc(COCC3(c4ccccc4)CCNCC3)cc(C(F)(F)F)c2)c1 | – |
| – | 100 to 300 | 0.01 to 100 | – | CC(=O)c1ccc(-c2cc(COCC3(c4ccccc4)CCNCC3)cc(C(F)(F)F)c2)cc1 | – |
| – | > 300 | 100 to 300 | – | FC(F)(F)c1cc(COCC2(c3ccccc3)CCNCC2)cc(-c2ccccc2Oc2ccccc2)c1 | – |
| – | 0.01 to 100 | 0.01 to 100 | – | Cc1cnccc1-c1cc(COCC2(c3ccccc3)CCNCC2)cc(C(F)(F)F)c1 | – |
| 100 to 300 | – | – | 100 to 300 | COc1cccc(-c2cc(COCC3(c4ccccc4)CCNCC3)cc(C(F)(F)F)c2)c1OC | – |
| – | 100 to 300 | 0.01 to 100 | – | COc1ccc(-c2ccc(C#N)nc2)cc1COCC1(c2ccccc2)CCNCC1 | – |
| – | > 300 | 0.01 to 100 | – | Cc1cc(C)cc(-c2cc(COCC3(c4ccccc4)CCNCC3)cc(C(F)(F)F)c2)c1 | – |
| 0.01 to 100 | – | – | 0.01 to 100 | Cn1cc(-c2cc(COCC3(c4ccccc4)CCNCC3)cc(C(F)(F)F)c2)cn1 | – |
| – | 100 to 300 | 0.01 to 100 | – | COc1cc(-c2cc(COCC3(c4ccccc4)CCNCC3)cc(C(F)(F)F)c2)c(F)cn1 | – |
| – | 100 to 300 | 100 to 300 | – | Cc1cccc(C)c1-c1cc(COCC2(c3ccccc3)CCNCC2)cc(C(F)(F)F)c1 | – |
| – | 0.01 to 100 | 0.01 to 100 | – | FC(F)(F)c1cc(COCC2(c3ccccc3)CCNCC2)cc(-c2ccncc2Cl)c1 | – |
| 0.01 to 100 | – | – | 0.01 to 100 | CC(OCC1(c2ccccc2)CCNCC1)c1cc(Cl)cc(-c2ccc(C#N)cc2)c1 (stereo not shown) | – |
| – | 0.01 to 100 | 0.01 to 100 | – | COc1cccc(OC)c1-c1cc(COCC2(c3ccccc3)CCNCC2)cc(C(F)(F)F)c1 | – |
| – | 0.01 to 100 | 0.01 to 100 | – | Oc1cccc(-c2cc(COCC3(c4ccccc4)CCNCC3)cc(C(F)(F)F)c2)c1 | – |
| > 300 | – | – | 0.01 to 100 | Cc1ccc(C)c(-c2cc(COCC3(c4ccccc4)CCNCC3)cc(C(F)(F)F)c2)c1 | – |
| 0.01 to 100 | – | – | 0.01 to 100 | N#Cc1ccc(-c2cc(COCC3(c4ccccc4)CCNCC3)cc(C(F)(F)F)c2)nc1 | – |
| – | 100 to 300 | 0.01 to 100 | – | CCOc1cccc(-c2cc(COCC3(c4ccccc4)CCNCC3)cc(C(F)(F)F)c2)c1 | – |
| 0.01 to 100 | – | – | 0.01 to 100 | FC(F)(F)c1cc(COCC2(c3ccccc3)CCNCC2)cc(-c2cnc(Cl)nc2)c1 | – |
| 0.01 to 100 | – | – | 0.01 to 100 | N#Cc1ccc(-c2cc(COCC3(c4cccc(Cl)c4)CCNCC3)cc(C(F)(F)F)c2)cc1 | – |
| 0.01 to 100 | – | – | 0.01 to 100 | Cc1cc(-c2cc(COCC3(c4ccccc4)CCNCC3)cc(C(F)(F)F)c2)ccc1C#N | – |
| > 300 | – | – | 0.01 to 100 | COc1ccc(C)cc1-c1cc(COCC2(c3ccccc3)CCNCC2)cc(C(F)(F)F)c1 | – |
| > 300 | – | – | 0.01 to 100 | O=C(OCc1ccccc1)c1cccc(-c2cc(COCC3(c4ccccc4)CCNCC3)cc(C(F)(F)F)c2)c1 | – |

| SMILES | IC50 ([1]; Table 2) [nM] | IC50 ([1]; Table 1) [nM] | IC50 [2, 3] [nM] | IC50 [2, 4] [nM] | IC50 [2] [nM] |
| --- | --- | --- | --- | --- | --- |
| CN1CCC(COCc2cc(-c3ccc(F)c(Cl)c3)cc(C(F)(F)F)c2)(c2ccccc2)CC1 | 0.01 to 100 | – | – | – | 0.01 to 100 |
| CN1CCC(COCc2cc(-c3ccc(C#N)cc3)cc(C(F)(F)F)c2)(c2cccc(C#N)c2)CC1 | 0.01 to 100 | – | – | – | 0.01 to 100 |
| CCN1CCC(COCc2cc(-c3ccc(C#N)cc3)cc(C(F)(F)F)c2)(c2ccccc2)CC1 | 0.01 to 100 | – | – | > 300 | – |
| C[C@@H](OCC1(c2ccccc2)CCN(C)CC1)c1cc(-c2ccc(C#N)cc2)cc(C(F)(F)F)c1 | 0.01 to 100 | – | – | – | 0.01 to 100 |

Source: patent US20070249607A1, “NK-1 AND SEROTONIN TRANSPORTER INHIBITORS” (Bristol-Myers Squibb Company, priority 2006, published 2007)
